Test results reported in patent US10870713B2, “Procatalyst and polymerization process using the same” (Dow Global Technologies LLC, priority 2015, dated 2020).

How the values were obtained:
[1] = Batch polymerization of ethylene and 1-octene in a Parr reactor (catalyst efficiency); conditions: reactor 147° C.; ISOPAR-E 1320 g; 1-octene 250 g; ethylene 410 psi; 10 min; procatalyst:activator 1:1.2; procatalyst:MMAO 1:50
Description: The procatalysts shown above were used to polymerize ethylene and 1-octene in a Parr batch polymerization reactor. All feeds were passed through columns of alumina and Q-5 catalyst (available from Engelhard Chemicals Inc.) prior to introduction into the polymerization reactor. Procatalyst and activator solutions were handled in a glove box under nitrogen atmosphere prior to addition to the polymerization reactor.
Table 2 illustrates the batch polymerizations results for each of C1 and 11-12 under the following conditions: reactor temperature: 147° C.; ISOPAR-E: 1320 g; 1-octene: 250 g; ethylene pressure: 410 psi; Run time: 10 min; procatalyst to activator ratio is 1:1.2; activator=[HNMe(C18H37)2][B(C6F5)4]; procatalyst to MMAO ratio is 1:50; […]
The catalyst efficiency is calculated by dividing the number of grams of the polyolefin copolymer prepared by the total number of grams of metal M of ingredient (a) employed (i.e., metal M of the at least one metal-ligand complex of formula (I)) (i.e., catalyst efficiency=g polyolefin copolymer prepared/g metal M of metal-ligand complex(es) of formula (I) employed).

[2] = Solubility testing of procatalysts in aliphatic hydrocarbon solvents; type: physicochemical
Procedure: Hexanes (10 mL) was added to this material and the solution was allowed to settle overnight. 5.03 grams of the clear supernatant hexanes was removed from the vial, then the hexanes was removed from this clear solution to leave behind 205 mg of product.
Hexanes (10 mL) was added to this material and the solution was allowed to settle overnight. 5.1 grams of the clear supernatant hexanes was removed from the vial, then the hexanes was removed from this clear solution to leave behind 140 mg of product.
About 950 mg of pre-catalyst used. Added ISOPAR-E (40 mL). Swirled solution then allowed insoluble material to settle to the bottom of the jar overnight. Removed 5.06 grams of ISOPAR-E solution into a vial. Solvent was removed and 120 mg of pre-catalyst was obtained.
To 72.3 mg of the solid in a vial was added 0.9 mL of ISOPAR E. The solution was stirred for about 1 h. The mixture was filtered and the solution was weighted (0.2934 g).
A 20-mL vial was charged with 82.0 mg of the Hf-complex and 0.8 mL of ISOPAR E. The mixture was stirred for 2 h and it was filtered via syringe filter. The colorless solution was weight and then concentrated under vacuum for 3 h. The white solid was weight to obtained 0.0217 g for a 6.2 w/w % solubility.
To the solid was added 0.2198 g of ISOPAR E and stirred for 1 hour. The solid completely dissolved to indicate a 9.5 wt % solubility in ISOPAR E.
To the Hf-complex was added 4 mL of hexane, and the solution was stirred for 4 hours. The solution was filtered via syringe to provide a weight of 2.0638 g. This solution was concentrated under vacuum to afford 0.3228 g of the solid 17 indicative of a 15.6 wt % solubility in hexanes. […]
Solubility was determined by either first forming a saturated solution of the procatalyst in one or more of the solvents as shown in Table 1. […] A portion of the clear supernatant is removed, and the mass is recorded. […] The mass of the resulting procatalyst that was in solution is recorded, allowing for calculation of a w/w % solubility in the indicated solvent. […]

In the case of `Cc1cc2c(c(-n3c4ccccc4c4ccccc43)c1)[O][Hf-2]13([CH3])([CH3])[O]c4c(cc(C)cc4-n4c5ccccc5c5ccccc54)-c4ccccc4[O+]1C[C@@H]1CCCCC1C[O+]3c1ccccc1-2` (stereo partly shown) [Procatalyst C1], the Efficiency [1] is reported as 826,377 g polyolefin copolymer prepared/g metal M, the “wt/wt % Solubility, ISOPAR-E” value ([2]; solvent ISOPAR-E) is reported as 1.2 wt/wt % and the “wt/wt % Solubility, Hexanes” value ([2]; solvent hexanes) is reported as 0.5 wt/wt %. For the same compound, the “wt/wt % Solubility, Methylcyclohexane” value ([2]; solvent methylcyclohexane) was 1.7 wt/wt %.
